Key:
[1] = target: PHD2 enzyme (residues 181-417) (Homo sapiens (Human), UniProt Q9GZT9); assay: Inhibition of PHD enzyme (LC/MS peptide hydroxylation assay); format: biochemical; settings: PHD2 (residues 181-417) 5 nM, 60 min pre-incubation; -log(IC50), IC50 molar
Description: Example A Inhibition of PHD Enzyme
The IC50 values for the PHD2 enzyme (residues 181-417) were determined by mixing increasing amounts of inhibitor with a fixed amount of enzyme (5 nM, final concentration) and Biotin labeled peptide (Biotin-Asp-Leu-Glu-Met-Leu-Ala-Pro-Tyr-Ile-Pro-Met-Asp-Asp-Asp-Phe-Gln-Leu, 1 uM final concentration) and 2-Oxyglutarate (2 uM final concentration) in 50 mM HEPES, 50 mM KCl, 0.5 mM TCEP, 2 uM FeCl2, 0.1 mg/ml BSA, at pH 7.3. The reaction was conducted by pre-incubating the enzyme in the presence of inhibitor for 60 min at room temperature. The activity of the free enzyme was measured by adding the peptide, the 2-Oxoglutarate (see above for final concentrations), and Ascorbic Acid (1 mM final concentration). The enzymatic activity was quenched after 60 min by adding an excess of a tight binding inhibitor to the assay mixture. The amount of product released was measured by using a LC/MS system (Agilent HPLC with Applied Biosystems API3000 Mass Spectrometer). Data were analyzed using the classical isotherm equation for the determination of IC50 values and are pIC50, i.e., −log(IC50), where IC50 is molar concentration and are reported as pIC50, i.e., −log(IC50), where IC50 is molar concentration.

[2] = system: HIF1a protein in H9c2 rat cardiomyocytes; assay: Cell-based HIF-alpha stabilization assay (inhibition of PHD in cells); settings: 24 hrs compound incubation, HIF1a protein by ELISA; for EC50: Rattus norvegicus, H9c2, 24 h, read-out: Inhibition of PHD in cells (pEC50) (converted)
Description: Example B Inhibition of PHD in Cells
PHD Inhibition is Determined Using (Secondary Assay)
Cell-Based HIF-Alpha Stabilization Assay:
H9c2 rat cardiomyocytes (ATCC) were seeded in 96-well tissue culture microplates and cultured for 24 hours prior to addition of compounds (11 point range of serial dilutions) or dimethylsulfoxide vehicle. After 24 hrs of compound incubation, whole cell extracts were prepared by lysing cells in cell extraction buffer containing protease and phosphatase inhibitors (Meso-Scale Discovery). HIF1a protein content was assessed by ELISA (Meso-Scale Discovery) and expressed as a % relative to the maximum response obtained from the positive control, desferrioxamine (Sigma-Aldrich). Compound EC50s were obtained by curve-fitting using XLfit4 MicroSoft Excel curve-fitting software. Compound EC50pos were obtained using XLfit4 to calculate the compound concentration that results in 50% of the desferrioxamine maximum response.

Chain of PHD2 enzyme (residues 181-417) (Q9GZT9 181-417): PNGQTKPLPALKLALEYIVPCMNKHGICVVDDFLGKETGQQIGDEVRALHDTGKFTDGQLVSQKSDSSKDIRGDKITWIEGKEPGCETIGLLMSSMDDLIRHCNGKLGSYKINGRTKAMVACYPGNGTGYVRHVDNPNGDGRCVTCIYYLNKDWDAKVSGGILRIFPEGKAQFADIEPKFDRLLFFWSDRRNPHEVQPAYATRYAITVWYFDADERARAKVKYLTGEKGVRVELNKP

Row | Compound | PHD Inhibition (pIC50) [1] | EC50 [2] [nM] | Inhibition of PHD in cells (pEC50) [2]
1 | Cc1cc(C#N)ccc1-c1cnn(-c2ccc(C(=O)NC3CCN(C)CC3)cn2)c1O [Example 100, 6-(4-(4-cyano-2-methylphenyl)-5-hydroxy-1H-pyrazol-1-yl)-N-(1-methylpiperidin-4-yl)nicotinamide] | 8.1 | 75.9 | –
2 | Cc1cc(C#N)ccc1-c1cnn(-c2ccc(C(=O)N3CCC[C@@H]3CN3CCCC3)cn2)c1O [Example 365, (R)-4-(5-hydroxy-1-(5-(2-(pyrrolidin-1-ylmethyl)pyrrolidine-1-carbonyl)pyridin-2-yl)-1H-pyrazol-4-yl)-3-methylbenzonitrile] | 7.80 | 417 | –
3 | Cc1cc(C#N)ccc1-c1cnn(-c2ccc(C(=O)N3CC(N4CCCCC4)C3)cn2)c1O [Example 344, 4-(5-hydroxy-1-(5-(3-(piperidin-1-yl)azetidine-1-carbonyl)pyridin-2-yl)-1H-pyrazol-4-yl)-3-methylbenzonitrile] | 8.17 | 468 | –
4 | N#Cc1ccc(-c2cnn(-c3ccc(C(=O)NC4CCNCC4)cn3)c2O)cc1 [Example 72] | 7.8 | 2880 | –
5 | COCC(C)(C)NC(=O)c1ccc(-n2ncc(-c3ccnc(OC)c3)c2O)nc1 [Example 17, 6-(5-hydroxy-4-(2-methoxypyridin-4-yl)-1H-pyrazol-1-yl)-N-(1-methoxy-2-methylpropan-2-yl)nicotinamide] | 7.03 | 347 | –
6 | CNC(=O)c1ccc(-n2ncc(-c3ccc(C#N)cc3C)c2O)nc1 [Example 107, 6-(4-(4-cyano-2-methylphenyl)-5-hydroxy-1H-pyrazol-1-yl)-N-methylnicotinamide] | 8.4 | 129 | –
7 | COC1CN(C(=O)c2ccc(-n3ncc(-c4ccc(C#N)cc4C)c3O)nc2)C1 [Example 184, 4-(5-hydroxy-1-(5-(3-methoxyazetidine-1-carbonyl)pyridin-2-yl)-1H-pyrazol-4-yl)-3-methylbenzonitrile] | 8.1 | 214 | –
8 | C[C@@H](NC(=O)c1ccc(-n2ncc(-c3ccc(C#N)cc3)c2O)nc1)C(F)(F)F [Example 170, (R)-6-(4-(4-cyanophenyl)-5-hydroxy-1H-pyrazol-1-yl)-N-(1,1,1-trifluoropropan-2-yl)nicotinamide] | 7.29 | 2750 | –
9 | COCCCNC(=O)c1ccc(-n2ncc(-c3ccc(C#N)cc3C3CC3)c2O)nc1 [Example 300, 6-(4-(4-cyano-2-cyclopropylphenyl)-5-hydroxy-1H-pyrazol-1-yl)-N-(3-methoxypropyl)nicotinamide] | 7.99 | 17.4 | –
10 | COc1cc(-c2cnn(-c3ccc(C(=O)NC4CC4)cn3)c2O)ccn1 [Example 204, N-cyclopropyl-6-(5-hydroxy-4-(2-methoxypyridin-4-yl)-1H-pyrazol-1-yl)nicotinamide] | 7.08 | 468 | –
11 | CN(C)CC(C)(C)NC(=O)c1ccc(-n2ncc(-c3ccc(C#N)cc3)c2O)nc1 [Example 109, 6-(4-(4-cyanophenyl)-5-hydroxy-1H-pyrazol-1-yl)-N-(1-(dimethylamino)-2-methylpropan-2-yl)nicotinamide] | 7.7 | 1200 | –
12 | CO[C@H]1CC[C@H](NC(=O)c2ccc(-n3ncc(-c4ccc(C#N)cc4)c3O)nc2)CC1 [Example 228, 6-(4-(4-cyanophenyl)-5-hydroxy-1H-pyrazol-1-yl)-N-((1r,4r)-4-methoxycyclohexyl)nicotinamide] | 7.48 | – | 6.59
13 | COc1cc(-c2cnn(-c3ccc(C(=O)NC4CCOCC4)cn3)c2O)ccn1 [Example 15, 6-(5-hydroxy-4-(2-methoxypyridin-4-yl)-1H-pyrazol-1-yl)-N-(tetrahydro-2H-pyran-4-yl)nicotinamide] | 7.21 | 646 | –
14 | CCCN1CCC(N(C)C(=O)c2ccc(-n3ncc(-c4ccc(C#N)cc4C)c3O)nc2)CC1 [Example 294, 6-(4-(4-cyano-2-methylphenyl)-5-hydroxy-1H-pyrazol-1-yl)-N-methyl-N-(1-propylpiperidin-4-yl)nicotinamide] | 8.22 | 1120 | –
15 | Cc1c(-c2cnn(-c3ccc(C(=O)N4CCN(C)[C@@H](C)C4)cn3)c2O)ccc(C#N)c1F [Example 329, (S)-4-(1-(5-(3,4-dimethylpiperazine-1-carbonyl)pyridin-2-yl)-5-hydroxy-1H-pyrazol-4-yl)-2-fluoro-3-methylbenzonitrile] | 8.50 | 331 | –
16 | COCCC1(NC(=O)c2ccc(-n3ncc(-c4ccc(C#N)cc4C)c3O)nc2)CCCC1 [Example 356] | 8.16 | 977 | –
17 | Cc1c(-c2cnn(-c3ccc(C(=O)N4CCC[C@@H](N(C)C)C4)cn3)c2O)ccc(C#N)c1F [Example 319, (R)-4-(1-(5-(3-(dimethylamino)piperidine-1-carbonyl)pyridin-2-yl)-5-hydroxy-1H-pyrazol-4-yl)-2-fluoro-3-methylbenzonitrile] | 8.17 | 537 | –
18 | Cc1cc(C#N)ccc1-c1cnn(-c2ccc(C(=O)N3CCN(C)C(C)(C)C3)cn2)c1O [Example 377, 4-(5-hydroxy-1-(5-(3,3,4-trimethylpiperazine-1-carbonyl)pyridin-2-yl)-1H-pyrazol-4-yl)-3-methylbenzonitrile] | 8.44 | 813 | –
19 | COc1cc(C#N)ccc1-c1cnn(-c2ccc(C(=O)NCc3ccccc3)cn2)c1O [Example 195, N-benzyl-6-(4-(4-cyano-2-methoxyphenyl)-5-hydroxy-1H-pyrazol-1-yl)nicotinamide] | 7.01 | 2510 | –
20 | N#Cc1ccc(-c2cnn(-c3ccc(C(=O)NCC4CC(F)(F)C4)cn3)c2O)cc1 [Example 264, 6-(4-(4-cyanophenyl)-5-hydroxy-1H-pyrazol-1-yl)-N-((3,3-difluorocyclobutyl)methyl)nicotinamide] | 6.99 | 1620 | –
21 | CN1CCC(CNC(=O)c2ccc(-n3ncc(-c4ccc(C#N)cc4)c3O)nc2)CC1 [Example 271, 6-(4-(4-cyanophenyl)-5-hydroxy-1H-pyrazol-1-yl)-N-((1-methylpiperidin-4-yl)methyl)nicotinamide] | 6.98 | 1550 | –
22 | COc1cc(-c2cnn(-c3ccc(C(=O)NC(C)C)cn3)c2O)ccn1 [Example 5, 6-(5-hydroxy-4-(2-methoxypyridin-4-yl)-1H-pyrazol-1-yl)-N-isopropylnicotinamide] | 7.01 | 562 | –
23 | Cc1cc(C#N)ccc1-c1cnn(-c2ccc(C(=O)N3CCC[C@H](N4CCCC4)C3)cn2)c1O [Example 381, (S)-4-(5-hydroxy-1-(5-(3-(pyrrolidin-1-yl)piperidine-1-carbonyl)pyridin-2-yl)-1H-pyrazol-4-yl)-3-methylbenzonitrile] | 7.94 | 1070 | –
24 | COCC1(NC(=O)c2ccc(-n3ncc(-c4ccc(C#N)cc4)c3O)nc2)CCC1 [Example 199, 6-(4-(4-cyanophenyl)-5-hydroxy-1H-pyrazol-1-yl)-N-(1-(methoxymethyl)cyclobutyl)nicotinamide] | 6.89 | 2340 | –
25 | COCC1(CNC(=O)c2ccc(-n3ncc(-c4ccc(C#N)cc4C)c3O)nc2)CCCC1 [Example 143, 6-(4-(4-cyano-2-methylphenyl)-5-hydroxy-1H-pyrazol-1-yl)-N-((1-(methoxymethyl)cyclopentyl)methyl)nicotinamide] | 7.9 | 891 | –
26 | CCCNC(=O)c1ccc(-n2ncc(-c3ccc(C#N)cc3)c2O)nc1 [Example 267, 6-(4-(4-cyanophenyl)-5-hydroxy-1H-pyrazol-1-yl)-N-propylnicotinamide] | 7.36 | 708 | –

Source: patent US10407409B2, “6-(5-hydroxy-1H-pyrazol-1-yl)nicotinamide inhibitors of PHD” (Takeda Pharmaceutical Company Limited, priority 2013, dated 2019)
